Columns and labels:
Assay type in all cases: in vivo
[1] = tested on: sedge, umbrella (small-flower umbrella sedge Cyperus difformis); test: Test B flooded paddy: sedge, umbrella; details: Flood; 250 g ai/ha; applied to paddy water at 2-leaf stage; visually evaluated after 13 to 15 days
Summary of the method: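 At two leaves, seedlings received the test compound via the paddy water, pots having been flooded 3 cm over the soil surface and kept so. Greenhouse-held for 13 to 15 days, then judged by eye against controls on a scale running 0 (no effect) to 100 (complete control).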

[2] = tested on: velvetleaf (Abutilon theophrasti); test: Test A pre-/postemergence: velvetleaf; details: for Velvetleaf plant response rating: visual rating on 0 to 100 scale (0 no effect, 100 complete control), approximately ten days
Summary of the method: (§1)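 Rating scale 0–100 (100 = complete control), visual, ~10 days after application in the greenhouse. Applications: preemergence directed soil spray; postemergence at 1–2 leaves.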

[3] = tested on: Oilseed Rape; test: Test C pre-/postemergence: oilseed rape; details: Preemergence, 250 g ai/ha; scale 0 to 100, 0 no effect, 100 complete control
Description: Seeds of plant species selected from blackgrass (Alopecurus myosuroides), bromegrass, downy (downy bromegrass, Bromus tectorum), foxtail, green (green foxtail, Setaria viridis), ryegrass, Italian (Italian ryegrass, Lolium multiflorum), winter wheat (Triticum aestivum), wild oat (Avena fatua), galium (catchweed bedstraw, Galium aparine), bermudagrass (Cynodon dactylon), surinam grass (Brachiaria decumbens), cocklebur (common cocklebur, Xanthium strumarium), corn (Zea mays), large crabgrass (Digitaria sanguinalis), woolly cupgrass (Eriochloa villosa), foxtail, giant (giant foxtail, Setaria faberii), goosegrass (Eleusine indica), johnsongrass (Sorghum halepense), kochia (Kochia scoparia), lambsquarters (Chenopodium album), morningglory (Ipomoea coccinea), nightshade (eastern black nightshade, Solanum ptycanthum), nutsedge, yellow (yellow nutsedge, Cyperus esculentus), pigweed (Amaranthus retroflexus), ragweed (common ragweed, Ambrosia elation), soybean (Glycine max), common (oilseed) sunflower (Helianthus annuus), Russian thistle (Salsola kali) and velvetleaf (Abutilon theophrasti) were planted into a blend of loam soil and sand and treated preemergence with test chemicals formulated in a non-phytotoxic solvent mixture which included a surfactant.
At the same time, plants selected from these crop and weed species and also barley (winter barley, Hordeum vulgare), canarygrass (Phalaris minor), chickweed (common chickweed, Stellaria media) windgrass (Apera spica-venti) and deadnettle (henbit deadnettle, Lamium amplexicaule) were planted in pots containing Redi-Earth® planting medium (Scotts Company, 14111 Scottslawn Road, Marysville, Ohio 43041) comprising spaghnum peat moss, vermiculite, wetting agent and starter nutrients and treated with postemergence applications of test chemicals formulated in the same manner. Plants ranged in height from 2 to 18 cm (1- to 4-leaf stage) for postemergence treatments.
Treated plants and controls were maintained in a greenhouse for 13 to 15 days, after which time all species were compared to controls and visually evaluated. Plant response ratings, summarized in Table C, are based on a scale of 0 to 100 where 0 is no effect and 100 is complete control. A dash (-) response means no test result.

[4] = tested on: corn (Zea mays); test: Test A pre-/postemergence: corn; details: for Corn plant response rating: visual rating on 0 to 100 scale (0 no effect, 100 complete control), approximately ten days
Summary of the method: as §1

[5] = tested on: nutsedge, yellow (yellow nutsedge, Cyperus esculentus); test: Test C pre-/postemergence: nutsedge, yellow
Summary of the method: (§2)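 Visual injury scored 0–100 (100 = complete control) against untreated controls after 13–15 greenhouse days. Surfactant-containing solvent formulations applied either to soil after sowing (loam/sand) or over 1- to 4-leaf plants, 2–18 cm tall.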

[6] = tested on: chickweed (common chickweed, Stellaria media); test: Test C postemergence: chickweed
Summary of the method: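 Visual ratings of 0 (no effect) to 100 (complete control) were made against controls 13-15 days after a postemergence spray, with plants kept in a greenhouse. Plants were 2-18 cm tall (1- to 4-leaf stage) in Redi-Earth peat/vermiculite medium at treatment.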

[7] = tested on: foxtail, giant (giant foxtail, Setaria faberii); test: Test A pre-/postemergence: foxtail, giant; details: for Foxtail, Giant plant response rating: visual rating on 0 to 100 scale (0 no effect, 100 complete control), approximately ten days
Summary of the method: as §1

[8] = tested on: wheat (Triticum aestivum); test: Test A pre-/postemergence: wheat; details: for Wheat plant response rating: visual rating on 0 to 100 scale (0 no effect, 100 complete control), approximately ten days
Summary of the method: as §1

[9] = tested on: winter wheat (Triticum aestivum); test: Test C pre-/postemergence: winter wheat
Summary of the method: as §2

[10] = tested on: pigweed (Amaranthus retroflexus); test: Test C pre-/postemergence: pigweed
Summary of the method: as §2

[11] = Postemergence, 125 g ai/ha, 0 to 100 scale, 0 is no effect, 100 is complete control
[12] = Preemergence, 125 g ai/ha, 0 to 100 scale where 0 is no effect and 100 is complete control
[13] = Preemergence, 500 g ai/ha, 0 to 100 scale (0 no effect, 100 complete control)
[14] = Postemergence, 31 g ai/ha, scale 0 to 100 (0 no effect, 100 complete control)
[15] = Postemergence, 62 g ai/ha, scale 0 to 100 (0 no effect, 100 complete control)
[16] = Postemergence, 125 g ai/ha, scale 0 to 100, 0 no effect, 100 complete control
[17] = Postemergence, 250 g ai/ha, scale 0 to 100
[18] = Preemergence, 31 g ai/ha, scale of 0 to 100, 0 is no effect, 100 is complete control
[19] = 31 g ai/ha, scale 0 to 100 (0 no effect, 100 complete control)
[20] = 62 g ai/ha, scale 0 to 100 (0 no effect, 100 complete control)
[21] = 125 g ai/ha, scale 0 to 100, 0 no effect, 100 complete control
[22] = Preemergence, 62 g ai/ha, scale of 0 to 100, 0 is no effect, 100 is complete control
[23] = Preemergence, 125 g ai/ha, scale 0 to 100, 0 no effect, 100 complete control
[24] = Preemergence, 250 g ai/ha, scale 0 to 100, 0 no effect, 100 complete control

CCc1nn(-c2ccc(F)cc2)nc1Cc1ccnc(C(F)(F)F)c1 [Compound 154]
Plant response rating, Sedge, Umbrella (0 to 100 scale, 0 is no effect, 100 is complete control) [1]: 80
Plant response rating, Velvetleaf [2, 11]: 100
Velvetleaf plant response rating ([2]; Postemergence, 500 g ai/ha): 100
Plant response rating, Velvetleaf [2, 12]: 30
Plant response rating, Velvetleaf [2, 13]: 70
Plant response rating, Oilseed Rape [3]: 100
Plant response rating, Corn [4, 11]: 30
Corn plant response rating ([4]; Postemergence, 500 g ai/ha): 80
Plant response rating, Corn [4, 12]: 20
Plant response rating, Corn [4, 13]: 70
Plant response rating, Nutsedge, Yellow [5, 14]: 10
Plant response rating, Nutsedge, Yellow [5, 15]: 10
Plant response rating, Nutsedge, Yellow [5, 16]: 15
Plant response rating, Nutsedge, Yellow [5, 17]: 15
Plant response rating, Nutsedge, Yellow [5, 18]: 0
Plant response rating, Chickweed [6, 19]: 85
Plant response rating, Chickweed [6, 20]: 85
Plant response rating, Chickweed [6, 21]: 95
Plant response rating, Chickweed ([6]; 250 g ai/ha, scale 0 to 100): 95
Plant response rating, Foxtail, Giant [7, 11]: 90
Foxtail, Giant plant response rating ([7]; Postemergence, 500 g ai/ha): 100
Plant response rating, Foxtail, Giant [7, 12]: 100
Plant response rating, Foxtail, Giant [7, 13]: 100
Plant response rating, Wheat [8, 11]: 20
Wheat plant response rating ([8]; Postemergence, 500 g ai/ha): 50
Plant response rating, Wheat [8, 12]: 0
Plant response rating, Wheat [8, 13]: 20
Plant response rating, Wheat [9, 14]: 10
Plant response rating, Wheat [9, 15]: 15
Plant response rating, Wheat [9, 16]: 20
Plant response rating, Wheat [9, 17]: 30
Plant response rating, Wheat [9, 22]: 5
Plant response rating, Wheat [9, 23]: 5
Plant response rating, Wheat [9, 24]: 55
Plant response rating, Pigweed [10, 14]: 95
Plant response rating, Pigweed [10, 15]: 95
Plant response rating, Pigweed [10, 16]: 98
Plant response rating, Pigweed [10, 17]: 98
Plant response rating, Pigweed [10, 18]: 100
Plant response rating, Pigweed [10, 22]: 100
Plant response rating, Pigweed [10, 23]: 100
Plant response rating, Pigweed [10, 24]: 100

CCc1nn(-c2ccc(C(F)(F)F)cc2)nc1Cc1ccnc(C(F)(F)F)c1 [Compound 155]
Plant response rating, Sedge, Umbrella (0 to 100 scale, 0 is no effect, 100 is complete control) [1]: 80
Plant response rating, Velvetleaf [2, 11]: 100
Velvetleaf plant response rating ([2]; Postemergence, 500 g ai/ha): 100
Plant response rating, Oilseed Rape [3]: 100
Plant response rating, Corn [4, 11]: 40
Corn plant response rating ([4]; Postemergence, 500 g ai/ha): 70
Plant response rating, Corn [4, 12]: 60
Plant response rating, Corn [4, 13]: 80
Plant response rating, Nutsedge, Yellow [5, 14]: 5
Plant response rating, Nutsedge, Yellow [5, 15]: 10
Plant response rating, Nutsedge, Yellow [5, 16]: 10
Plant response rating, Nutsedge, Yellow [5, 17]: 20
Plant response rating, Nutsedge, Yellow [5, 18]: 0
Plant response rating, Chickweed [6, 19]: 50
Plant response rating, Chickweed [6, 20]: 70
Plant response rating, Chickweed [6, 21]: 95
Plant response rating, Chickweed ([6]; 250 g ai/ha, scale 0 to 100): 100
Plant response rating, Foxtail, Giant [7, 11]: 90
Foxtail, Giant plant response rating ([7]; Postemergence, 500 g ai/ha): 100
Plant response rating, Foxtail, Giant [7, 12]: 100
Plant response rating, Foxtail, Giant [7, 13]: 100
Plant response rating, Wheat [8, 11]: 40
Wheat plant response rating ([8]; Postemergence, 500 g ai/ha): 80
Plant response rating, Wheat [8, 12]: 10
Plant response rating, Wheat [8, 13]: 70
Plant response rating, Wheat [9, 14]: 15
Plant response rating, Wheat [9, 15]: 30
Plant response rating, Wheat [9, 16]: 35
Plant response rating, Wheat [9, 17]: 40
Plant response rating, Wheat [9, 22]: 5
Plant response rating, Wheat [9, 23]: 10
Plant response rating, Wheat [9, 24]: 35
Plant response rating, Pigweed [10, 14]: 90
Plant response rating, Pigweed [10, 15]: 90
Plant response rating, Pigweed [10, 16]: 98
Plant response rating, Pigweed [10, 17]: 100
Plant response rating, Pigweed [10, 18]: 100
Plant response rating, Pigweed [10, 22]: 100
Plant response rating, Pigweed [10, 23]: 100
Plant response rating, Pigweed [10, 24]: 100

— US9302999B2, “Substituted triazoles as herbicides” (E. I. DU PONT DE NEMOURS AND COMPANY, priority 2012, dated 2016)
